# Test results from US7189391B2, “Method of in vitro preconditioning healthy donor's myoblasts before transplantation thereof in compatible patients suffering of myopathies like muscular dystrophy, for improving transplantation success” (Université Laval, priority 1996, dated 2007).
# Assays:
# [1] = tested on: primary cultures of myoblasts; assay: Transplantation of TnI-βGal myoblasts cultured with phorbol ester (TPA); format: in vivo, mouse; conditions: TPA 100 ng/ml, 2 days culture, n=5 mice
# Protocol: Imm 7 neo: expresses neomycin. Imm 7 Matrilysine: expresses neomycin and matrilysine. Tn I βgal: untreated transgenic mouse myoblasts expressing β-Gal. Tn I βGal+TPA: transgenic mouse myoblasts/β-Gal treated with phorbol ester.
# Second experiment: primary cultures of myoblasts were obtained from transgenic mice (TnI-βGal+TPA). Myoblasts were cultured for two (2) days in the presence of phorbol ester (TPA 100 ng/ml) which also stimulates the expression metalloproteases.
# mdx mice [2] = assay: Intramuscular injections of bFGF after myoblast transplantation in mdx mice; format: in vivo, mouse; conditions: intramuscular injections of bFGF vs HBSS control
# Protocol: (§1) The mdx mice were divided in three groups. Six mdx mice of one group were grafted in both tibialis anterior (TA) muscles: myoblasts grown with bFGF were injected in the left TA and myoblasts grown without bFGF were injected in the right TA. Myoblasts grown without bFGF were injected in only the left TA of six other mdx mice. These six mdx mice were then injected intramuscularly four times (after grafting 0, +1, +4 and +6 days) either with 10 μl of bFGF (100 ng/ml, 3 mice) or with 10 μl of HBSS (3 mice). The last five mice were grafted in both TA muscle with normal CD1 mouse myoblasts infected with replication defective retroviral vector LNPOZC7 (gift from Dr C. Cepko, Harvard, Boston, Mass.) which contains the LacZ gene. The left TA muscles were injected with 4 million myoblasts grown with bFGF, while the right TA muscles were injected with 4 million myoblasts grown without bFGF. Three days after grafting, these 5 mice were sacrificed to detect the number of β-galactosidase positive cells which survived in each TA muscle. The numbers of β-galactosidase positive cells were counted in 8 μm sections obtained at every 160 μm throughout the muscle. The total number of cells counted was multiplied by 20 to obtain an estimate of the number of surviving cells and a correction was made to account for the percentage of unlabelled cells in cultures with and without bFGF. […]
# mdx mice [3] = assay: Survival of retrovirally labelled myoblasts 3 days after transplantation in TA muscle; format: in vivo, mouse; conditions: myoblasts grown with bFGF, 4×10^6 cells injected
# Protocol: as §1
# [4] = tested on: primary myoblast cultures; assay: Effects of bFGF on primary myoblast culture (cell count, desmin staining); format: cell-based, mouse
# Text: Primary myoblast cultures were established from muscle biopsies of newborn transgenic mice^26. The founder mouse (TnI Lac Z1/29) was provided by Dr. Hasting (McGill University, Montreal, Canada) onto the CD1 background and was reproduced in our laboratory. This transgenic mouse expresses the β-galactosidase gene under the control of the promoter of the quail fast skeletal muscle troponin I gene^16. […] Before starting myoblast cultures, it was necessary to identify transgenic newborns by X-gal staining of a small muscle biopsy because heterozygote transgenic mice were used as parents. Myogenic cells were released from skeletal muscle fragments of the transgenic newborns by serial enzyme treatments. First, a one hour digestion was done with 600 U/ml collagenase (Sigma, St. Louis, Mo., USA). This was followed by a 30 minute incubation in Hanck's balanced salt solution (HBSS) containing 0.1% w/v trypsin (Gibco Lab, Grand Island, N.Y., USA). Satellite cells were placed in 75 cm^2 culture flasks (Coster, Cambridge, Mass., USA) in proliferating medium, i.e. 199 medium (Gibco Lab.) with 15% fetal bovine serum (Gibco Lab.), 1% penicillin (10,000 U/ml) and 1% streptomycin (10,000 U/ml).
# One day after starting culture, the culture medium of some flasks was replaced by medium containing 100 ng/ml human recombinant bFGF (Sigma). Three days after starting culture, myoblasts were detached from the flasks with 0.1% trypsin followed by three suspensions in HBSS and centrifugations (6500 RPM, 5 minutes). The final cell pellet was diluted in only 40 μl of HBSS.
# The primary cultures were washed with PBS and fixed with 100% methanol at −4° C. They were then washed again 3 times with PBS and incubated 1 hr with a mAb anti-human desmin (Dako, Copenhagen, Denmark) diluted 1/50 with PBS containing 1% blocking serum (i.e. 0.33% rabbit serum, 0.33% horse serum and 0.33 fetal calf serum). They were washed 3 times with PBS with 1% blocking serum and incubated 1 hr with a 1/100 dilution (in PBS with 1% blocking serum) of a rabbit anti-mouse immunoglobulin (Dako).
# To try to understand the beneficial effects of bFGF on myoblast transplantation, we examined the effect of a short stimulation (2 days) with 100 ng/ml bFGF on primary myoblast cultures. The total number of cells in each flask was not significant different (31.9±6.8×10^6 with bFGF n=5, 30.0±5.8×10^6 without FGF n=9, unpaired t-test: p=0.573). […] In these cultures, there was no difference in the percentage of myogenic nuclei (nuclei in myoblasts and in myotubes) between the two groups of cultures (Table 3, line 1). More myogenic cells were however fused in the absence of bFGF (Table 3, line 2). There was an higher percentage of the total nuclei (including myoblasts, myotubes and fibroblasts) which were myoblast nuclei in cultures containing bFGF (Table 3, line 3). The increase of myoblasts was more clear when the percentage of myoblasts was calculated among mononuclear cells (excluding the myotubes) (Table 3, lines 4 and 5). This was however only a 35% increase.
# myoblasts = assay: Migration of transplanted myoblasts cultured with concanavalin A, anterior tibialis muscle of mice; format: in vivo, mouse; conditions: CMVLacZ myoblasts cultured 2 days with 20 μg/ml concanavalin A
# Protocol: Myoblasts infected with a retrovirus expressing a beta-galactosidase gene have been cultured for four days in the presence or absence of 20 μg/ml concanavalin A, a lectine which stimulates the expression of metalloproteases. These myoblasts were then injected in one single site of the anterior tibialis muscle of eight mice, in order to verify the degree with which the transplanted cells are capable of migrating through the recipient tissue. After thirty days, mice were sacrificed and the muscle tissue was harvested, frozen and 10 μm thick slices were mounted on slides. […] Therefore, the presence of metalloproteases in the preconditioning medium or during the transplantation is beneficial to the spreading of the transplanted cells from the site of the injection through the recipient muscle tissue.
# First experiment: Myoblasts obtained from CMVLacZ mice (expressing a Beta-galactosidase gene) were cultured for two (2) days in the presence of twenty (20) μg/ml concanavalin A, a lectine which stimulates the expression of metalloproteases. When these myoblasts were injected in the anterior tibialis muscle of recipient mice, the migration of transplanted cells was increased by three (3) fold comparatively to myoblasts having not received the concanavalin treatment.
# [5] = with bFGF 100 ng/ml, 2 days, mean ± SD
compound,measurement,setting,value
"CCCCCCCCCCCCCC(=O)O[C@@H]1[C@@H](C)[C@@]2(O)[C@@H](C=C(CO)C[C@]3(O)C(=O)C(C)=C[C@@H]23)[C@@H]2C(C)(C)[C@]12OC(C)=O [TPA, phorbol ester]",area of generated fibers vs non-treated preparation,[1],four fold greater
same,fibers generated vs non-treated preparation,[1],four times more fibers
basic fibroblast growth factor [bFGF],difference in the percentage of hybrid or donor muscle fibers vs HBSS injections,mdx mice [2],No significant difference
same,number of β-galactosidase positive cells 3 days after transplantation,"mdx mice [3]; left TA muscles, 5 mice",3.29±1.54×10^5 cells
same,% of the injected cells surviving at 3 days,mdx mice [3],8.2%
same,total number of cells in each flask,"[4]; 2 days with 100 ng/ml bFGF, n=5",31.9±6.8×10^6
same,increase of the percentage of myoblasts among mononuclear cells,[4]; 2 days with bFGF vs without,35%
same,% myoblast nuclei relative to non myotube nuclei,[4]; [5],32.2 ± 4.1%
same,% myoblast nuclei relative to total nuclei,[4]; [5],30.9 ± 3.8%
same,% of myoblast and myotube nucleic relative to total nuclei,[4]; [5],35.1 ± 4.8%
same,% of myotube nuclei relative to total myotube and myoblast nuclei,[4]; [5],11.5 ± 6.6%
same,% of non-myoblast nuclei relative to non myotube nuclei,[4]; [5],67.8 ± 4.1%
concanavalin A,increase of migration of transplanted cells vs untreated myoblasts,myoblasts,3 fold
